Measured values as given in ChEMBL document CHEMBL4145686, “Discovery of a Potent and Selective Steroidal Glucocorticoid Receptor Antagonist (ORIC-101)” (J Med Chem, 2018).
The source made the active and inactive calls. No cut-off for these calls is given here.

Tests used:
[1] = target: T1, Glucocorticoid receptor (Homo sapiens, UniProt P04150); assay: Agonist activity at human GR expressed in CHO-K1 cells incubated for 20 hrs by luciferase reporter gene assay; assay type: cell-based
T1 sequence (P04150 whole entry): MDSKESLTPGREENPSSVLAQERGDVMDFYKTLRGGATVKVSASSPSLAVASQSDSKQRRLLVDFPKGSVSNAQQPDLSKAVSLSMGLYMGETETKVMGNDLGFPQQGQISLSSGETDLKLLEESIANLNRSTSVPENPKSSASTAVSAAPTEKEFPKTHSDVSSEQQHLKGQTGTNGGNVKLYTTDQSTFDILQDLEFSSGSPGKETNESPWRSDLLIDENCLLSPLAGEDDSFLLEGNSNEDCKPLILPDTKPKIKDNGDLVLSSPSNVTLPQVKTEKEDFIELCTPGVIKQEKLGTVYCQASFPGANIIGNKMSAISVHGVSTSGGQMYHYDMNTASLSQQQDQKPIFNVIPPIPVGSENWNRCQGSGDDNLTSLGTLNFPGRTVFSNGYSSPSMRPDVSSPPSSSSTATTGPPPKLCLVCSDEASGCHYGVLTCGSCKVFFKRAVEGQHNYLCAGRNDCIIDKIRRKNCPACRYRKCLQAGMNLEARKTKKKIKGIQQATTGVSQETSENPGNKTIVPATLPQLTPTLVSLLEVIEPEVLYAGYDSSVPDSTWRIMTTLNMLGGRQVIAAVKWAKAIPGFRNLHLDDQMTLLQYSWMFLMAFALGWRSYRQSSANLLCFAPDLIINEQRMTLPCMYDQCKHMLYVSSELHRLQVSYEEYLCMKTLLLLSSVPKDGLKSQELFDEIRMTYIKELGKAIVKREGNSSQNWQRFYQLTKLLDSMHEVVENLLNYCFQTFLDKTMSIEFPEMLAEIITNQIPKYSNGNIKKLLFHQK

[2] = target: T2, Androgen receptor (Homo sapiens, UniProt P10275); assay: Antagonist activity at AR (unknown origin) expressed in human LNCaP cells assessed as reduction in R1881-induced response incubated for 20 hrs by luciferase reporter gene assay; assay type: cell-based
T2 sequence (P10275 whole entry): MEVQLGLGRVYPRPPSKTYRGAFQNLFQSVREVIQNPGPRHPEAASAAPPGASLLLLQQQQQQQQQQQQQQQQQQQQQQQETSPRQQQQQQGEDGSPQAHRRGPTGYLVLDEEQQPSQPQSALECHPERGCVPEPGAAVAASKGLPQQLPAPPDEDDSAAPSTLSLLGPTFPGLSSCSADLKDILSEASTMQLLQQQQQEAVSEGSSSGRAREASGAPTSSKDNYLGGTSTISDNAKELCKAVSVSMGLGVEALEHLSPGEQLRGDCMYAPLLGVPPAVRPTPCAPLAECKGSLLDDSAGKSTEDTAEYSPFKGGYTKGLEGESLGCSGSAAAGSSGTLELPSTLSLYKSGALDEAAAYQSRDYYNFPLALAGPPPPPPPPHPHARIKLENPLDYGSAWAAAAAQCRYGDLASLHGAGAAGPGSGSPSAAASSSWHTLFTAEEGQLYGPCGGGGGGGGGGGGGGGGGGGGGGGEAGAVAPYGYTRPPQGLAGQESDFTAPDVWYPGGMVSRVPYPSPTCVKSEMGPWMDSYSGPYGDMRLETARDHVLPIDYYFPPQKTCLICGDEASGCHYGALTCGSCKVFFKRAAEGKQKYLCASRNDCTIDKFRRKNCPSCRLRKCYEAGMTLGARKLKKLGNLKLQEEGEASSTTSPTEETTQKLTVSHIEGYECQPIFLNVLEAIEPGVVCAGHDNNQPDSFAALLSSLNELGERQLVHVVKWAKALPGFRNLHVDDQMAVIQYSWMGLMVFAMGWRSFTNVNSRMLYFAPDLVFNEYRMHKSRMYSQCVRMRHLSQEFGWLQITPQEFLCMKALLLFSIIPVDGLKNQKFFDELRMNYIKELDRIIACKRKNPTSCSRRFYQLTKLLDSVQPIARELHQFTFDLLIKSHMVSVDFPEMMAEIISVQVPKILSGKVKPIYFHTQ

[3] = target: T2, Androgen receptor; assay: Agonist activity at AR in human LNAR cells assessed as increase in PSA gene expression at 100 nM incubated for 24 hrs by RT-qPCR method; assay type: cell-based; conditions: 0.1 µM
[4] = target: T3, Glucocorticoid receptor (Sus scrofa, UniProt Q9N1U3); assay: Antagonist activity at GR in mini pig PBMC assessed as reduction in dexamethasone-induced FKBP5 gene expression incubated for 24 hrs by RT-qPCR method; assay type: cell-based
T3 sequence (Q9N1U3 whole entry): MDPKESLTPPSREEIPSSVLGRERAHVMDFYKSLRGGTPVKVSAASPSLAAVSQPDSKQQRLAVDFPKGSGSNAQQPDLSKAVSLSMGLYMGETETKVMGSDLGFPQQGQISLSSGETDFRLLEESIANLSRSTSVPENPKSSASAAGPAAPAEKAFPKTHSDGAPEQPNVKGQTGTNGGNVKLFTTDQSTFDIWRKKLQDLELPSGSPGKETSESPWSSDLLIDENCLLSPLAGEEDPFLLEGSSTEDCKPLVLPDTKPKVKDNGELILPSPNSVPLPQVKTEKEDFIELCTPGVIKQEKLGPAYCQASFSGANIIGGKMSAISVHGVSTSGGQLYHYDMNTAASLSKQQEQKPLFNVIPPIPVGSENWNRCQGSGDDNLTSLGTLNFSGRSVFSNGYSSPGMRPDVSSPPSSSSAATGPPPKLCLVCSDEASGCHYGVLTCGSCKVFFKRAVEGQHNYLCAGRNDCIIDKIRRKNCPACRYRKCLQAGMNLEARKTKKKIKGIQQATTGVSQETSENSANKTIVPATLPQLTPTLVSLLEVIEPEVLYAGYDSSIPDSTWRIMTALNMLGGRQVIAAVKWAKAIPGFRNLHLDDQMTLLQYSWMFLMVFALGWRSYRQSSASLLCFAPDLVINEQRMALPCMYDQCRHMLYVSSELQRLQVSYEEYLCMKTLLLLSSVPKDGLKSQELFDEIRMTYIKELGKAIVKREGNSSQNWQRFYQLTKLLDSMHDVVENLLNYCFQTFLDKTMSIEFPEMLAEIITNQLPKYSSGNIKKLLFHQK

[5] = test system: OVCAR-5; assay: Potentiation of carboplatin-induced antitumor activity against human OVCAR5 cells xenografted in chronic cortisol treated nude mouse assessed as reduction in tumor volume at 75 mg/kg, po BID dosed via gavage co-treated with gencitabine at 60 mg/kg dosed every 3 days for 4 doses; assay type: functional, organism-based

SMILES: CC(C)N(C)c1ccc([C@H]2C[C@@]3(C)[C@@H](CC[C@@]3(O)C#CC(C)(C)C)[C@@H]3CCC4=CC(=O)CC[C@@H]4[C@H]32)cc1
- EC50 [1]: > 2500 nM
- IC50 [2]: 484 nM
- Activity [3]: Not Active
- IC50 [4]: 39.3 nM
- Activity [5]: Active
